{"source": "paper PMC11189516", "about": "“Structure-guided conversion from an anaplastic lymphoma kinase inhibitor into Plasmodium lysyl-tRNA synthetase selective inhibitors” (Communications Biology, 2024)", "key": {"PfLysRS [1]": {"biological_target": "T1, PfLysRS (Plasmodium falciparum, UniProt Q8IDJ8)", "T1 construct": "PfLysRS (77–583) was constructed in the vector pET20b, with a C-terminal 6×His tag; 6xHis (C); made in house; host or cells: E. coli BL21 (DE3)", "T1 sequence (Q8IDJ8 entry or part of it)": "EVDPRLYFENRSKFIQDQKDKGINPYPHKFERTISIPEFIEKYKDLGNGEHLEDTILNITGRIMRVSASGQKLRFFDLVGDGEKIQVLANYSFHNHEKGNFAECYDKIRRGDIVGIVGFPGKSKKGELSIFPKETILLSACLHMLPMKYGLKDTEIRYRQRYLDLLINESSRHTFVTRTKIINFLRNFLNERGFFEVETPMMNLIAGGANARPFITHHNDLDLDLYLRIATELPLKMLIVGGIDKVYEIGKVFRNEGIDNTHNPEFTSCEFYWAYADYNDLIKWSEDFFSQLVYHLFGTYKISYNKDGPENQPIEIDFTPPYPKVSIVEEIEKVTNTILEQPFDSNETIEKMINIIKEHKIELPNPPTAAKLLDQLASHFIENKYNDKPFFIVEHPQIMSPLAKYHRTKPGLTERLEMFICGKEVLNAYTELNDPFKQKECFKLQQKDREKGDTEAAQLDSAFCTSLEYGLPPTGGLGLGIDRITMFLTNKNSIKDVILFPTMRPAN", "assay": "ATP hydrolysis assay (Kinase-Glo) on PfLysRS", "type": "biochemical", "conditions": "for LogIC50 (best-fit value): log of nM", "method": "(§1) The ATP hydrolysis assays were based on Kinase-Glo luminescent Kit (Promega). The experiment was carried out in Corning 384-well white flat bottom microplates. The buffer in the reaction contains 25 mM Hepes pH 7.4, 140 mM NaCl, 40 mM MgCl2, 30 mM KCl, 1 mM TCEP, 0.1 mg·mL^−1 BSA, and 0.004% Tween-20. The compounds were diluted to different concentrations with a 5-fold gradient.\n(§2) For LysRS assays, DMSO was added into negative control wells and L-lysine was removed in positive control wells. 100 nM LysRS in 2.5 μL Hepes buffer was mixed with compounds and incubated for 10 min. Then 5 μL substrate mixture (2 μM ATP, 10 μM L-lysine and 31 nM pyrophosphatase) was added to start the reaction at 37 °C and incubated for 6 h.\n(§3) When the reaction reaches the planned time, 10 μL diluted Kinase-Glo reagent (1/50 diluted with a buffer containing 50 mM Tris pH 7.5 and 5% glycerol) was added and incubated for 15 min. Luminescence was measured on the Magellan plate reader (Tecan) and nonlinear regression was performed with Prism (GraphPad)."}, "[2]": {"system": "erythrocytic-stage P. falciparum 3D7 parasites", "set-up": "method as in PMID 33053158", "conditions": "read-out: EC50, growth of erythrocytic-stage P. falciparum 3D7; cited from earlier work"}, "PfLysRS [3]": {"biological_target": "T1, PfLysRS", "conditions": "cited from earlier work"}, "PfLysRS [4]": {"biological_target": "T1, PfLysRS", "assay": "Thermal shift assay", "type": "binding", "conditions": "for ΔTm at 200 µM: in the presence of L-lysine", "method": "PfLysRS protein was prepared at 10 μM concentration in a buffer containing 20 mM Tris pH 8.0, 200 mM NaCl, 500 μM L-lysine, and 200 μM Compound. Aliquots (18 µL) were added to a 96-well PCR plate and incubated at ambient temperature for 10 min. SYPRO Orange dye (Sigma) was diluted in the assay buffer containing 20 mM Tris pH 8.0 and 200 mM NaCl to a 40× concentration, and 2 µL of the 40× dye solution was added to the PCR plate to bring the final assay volume to 20 µL. After complete mixing, the final solutions were heated from 25 to 90 °C at a rate of 0.015 °C per sec, and fluorescence signals were monitored by QuantStudio 3 (Applied Biosystems by Thermo Fisher Scientific)."}, "ALK": {"biological_target": "T2, ALK (Homo sapiens, UniProt Q9UM73)", "T2 construct": "The plasmid pCDNA3.1_8×His-tev-ALK (kinase domain, 1068–1410) was constructed; 8xHis (N); TEV site (N); made in house; host or cells: Expi293 cells (transient transfection)", "T2 sequence (Q9UM73 1068-1410)": "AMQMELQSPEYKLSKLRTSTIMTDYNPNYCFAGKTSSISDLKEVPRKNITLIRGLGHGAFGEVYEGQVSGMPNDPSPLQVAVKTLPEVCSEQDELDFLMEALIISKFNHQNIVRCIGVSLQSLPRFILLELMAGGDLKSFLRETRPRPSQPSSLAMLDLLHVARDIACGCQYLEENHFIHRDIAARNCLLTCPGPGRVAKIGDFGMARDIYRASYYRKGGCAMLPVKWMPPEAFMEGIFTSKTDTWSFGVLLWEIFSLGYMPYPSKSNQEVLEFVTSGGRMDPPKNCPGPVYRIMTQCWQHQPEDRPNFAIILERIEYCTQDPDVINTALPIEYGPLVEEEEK", "assay": "ATP hydrolysis assay (Kinase-Glo) on ALK", "type": "biochemical", "method": "as §1\nFor ALK assays, DMSO was added into negative control wells. 100 nM ALK in 2.5 μL Hepes buffer was mixed with compounds and incubated for 10 min. Then 5 μL substrate (2 μM ATP) was added to start the reaction at 37 °C and incubated for 6 h.\nas §3"}, "[5]": {"assay": "Solubility noted in the cytotoxicity assay", "type": "physicochemical", "conditions": "highest concentration limited to 100 μM in cell medium", "method": "Cell viability was analyzed by Cell Counting Kit-8 (CCK8, ApexBio) according to the manufacturer’s protocols. Cells were seeded and cultured at a density of 2.5 × 10^3 cells per well in 100 μL medium in 96-well microplates (Corning). Then, the cells were treated with different concentrations of compound (0, 1 μM, 3 μM, 10 μM, 100 μM, 300 μM). […] After treatment for 72 h, 10 μL of CCK-8 reagent was added to each well and then cultured for 4 h. All experiments were performed in pentaplicate. The absorbance was analyzed at 450 nm using a microplate reader (Tecan) using medium without cells as blanks. Data was processed using GraphPad Prism 9."}, "PfLysRS [6]": {"biological_target": "T1, PfLysRS", "assay": "Surface plasmon resonance (SPR) assay", "type": "binding", "conditions": "immobilized PfLysRS", "method": "PfLysRS was chemically immobilized on a Biacore CM5 sensorchip (immobilization level ~20000 resonance unit/RU) at pH 5.0 according to the immobilization kit (GE Healthcare). PfLysRS (1.7 nM) was captured for 90 s at a flow of 30 µL·min^−1. Affnity between PfLysRS and compounds was measured by SPR on a Biacore 8 K (GE Healthcare) at 25 °C with a running buffer (0.02 M phosphate buffer pH 7.4, 2.7 mM KCl, 0.137 M NaCl, 0.05% Tween 20, with 1 mM L-lysine). The association time was 90 s, the dissociation time was 120 s, and the flowrate was 30 µL·min^−1. Kinetic evaluation of the interaction between LysRS and compounds was performed by global fitting of the data to a 1:1 interaction model using Biacore Evaluation Software 3.1 (GE Healthcare)."}, "HsLysRS": {"biological_target": "T3, HsLysRS (Homo sapiens, UniProt Q15046)", "T3 construct": "HsLysRS (70–581) was constructed in the vector pET20b with a C-terminal 6×His tag; 6xHis (C); made in house; host or cells: E. coli (pET20b; 'purified similarly' to PfLysRS, which was expressed in BL21 (DE3))", "T3 sequence (Q15046 70-581)": "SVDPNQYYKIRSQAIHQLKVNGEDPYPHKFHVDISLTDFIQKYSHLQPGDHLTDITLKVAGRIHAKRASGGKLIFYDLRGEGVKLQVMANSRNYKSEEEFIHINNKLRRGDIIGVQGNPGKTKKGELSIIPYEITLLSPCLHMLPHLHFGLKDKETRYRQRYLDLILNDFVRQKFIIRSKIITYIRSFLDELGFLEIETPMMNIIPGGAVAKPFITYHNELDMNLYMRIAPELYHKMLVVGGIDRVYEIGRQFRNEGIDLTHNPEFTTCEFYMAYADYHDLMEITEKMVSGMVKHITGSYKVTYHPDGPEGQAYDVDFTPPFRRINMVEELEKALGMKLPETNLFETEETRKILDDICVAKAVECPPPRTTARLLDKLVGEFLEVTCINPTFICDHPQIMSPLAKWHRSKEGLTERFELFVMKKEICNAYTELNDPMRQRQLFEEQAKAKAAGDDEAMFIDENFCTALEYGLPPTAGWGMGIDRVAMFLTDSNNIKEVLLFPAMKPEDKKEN", "assay": "ATP hydrolysis assay (Kinase-Glo) on HsLysRS", "type": "biochemical", "method": "as §1, §2, §3"}, "P. falciparum ProRS": {"biological_target": "P. falciparum ProRS", "conditions": "sentence of the first manuscript quoted in the peer review file; read-out: dissociation constant (KD); cited from earlier work"}, "Staphylococcus aureus": {"system": "Staphylococcus aureus", "set-up": "method as in PMID 6258580, PMID 659331, PMID 3923922", "conditions": "cited from earlier work"}, "[7]": {"conditions": "+Lysine, sheet Figure 6B, in °C (unit assumed)"}}, "note": "Where “and” joins values, the source holds several entries; their conditions need not be identical. Identical values can stand only once. Like-named read-outs stand apart in the source and are kept apart here.", "data": [{"smiles": "COc1cc(N2CCC(N3CCN(C)CC3)CC2)ccc1Nc1ncnc(Nc2ccccc2S(=O)(=O)C(C)C)n1", "note": "[ASP3026, N-{2-Methoxy-4-[4-(4-methylpiperazin-1-yl)piperidin-1-yl]phenyl}-N’-[2-(propane-2-sulfonyl)phenyl]-1,3,5-triazine-2,4-diamine]", "values": [{"measurement": "IC50", "setting": "PfLysRS [1]; read-out: IC50 against PfLysRS", "result": "0.967 ± 0.17", "unit": "µM"}, {"measurement": "EC50", "setting": "[2]", "result": 5.61, "unit": "µM"}, {"measurement": "IC50", "setting": "PfLysRS [3]; another kit, different buffer system, ref nucleic acid research paper, read-out: previously reported IC50 against PfLysRS", "result": "0.657 ± 0.195", "unit": "µM"}, {"measurement": "inhibitory effect on human ALK stronger than on PfLysRS", "setting": "PfLysRS [3]; ref original Nucleic Acid Research paper", "result": "about 200 times"}]}, {"smiles": "COc1ccc(OC)c(Nc2ncnc(Nc3ccccc3S(=O)(=O)CCCNC(=O)[C@@H](N)CCCCN)n2)c1", "note": "[Compound 36K3]", "values": [{"measurement": "△Tm of PfLysRS", "setting": "PfLysRS [4]; +Lysine, sheet Figure 6B", "result": 12.798}, {"measurement": "Tm of PfLysRS, Average", "setting": "PfLysRS [4]; [7]", "result": 57.818}, {"measurement": "Tm of PfLysRS, single repeat", "setting": "PfLysRS [4]; [7]", "result": "57.710 and 57.895 and 57.833"}, {"measurement": "ΔTm at 200 µM", "setting": "PfLysRS [4]", "result": 12.8, "unit": "°C"}, {"measurement": "IC50", "setting": "ALK; read-out: IC50 against ALK", "result": "> 74.4", "unit": "µM"}, {"measurement": "solubility", "setting": "[5]", "result": "poor solubility"}, {"measurement": "HillSlope (best-fit value)", "setting": "PfLysRS [1]; PfLysRS", "result": 1.065}, {"measurement": "LogIC50 (best-fit value)", "setting": "PfLysRS [1]; PfLysRS", "result": 1.772}, {"measurement": "IC50", "setting": "PfLysRS [1]; read-out: IC50 against PfLysRS", "result": 0.0592, "unit": "µM"}, {"measurement": "koff", "setting": "PfLysRS [6]", "result": 0.0113, "unit": "s⁻¹"}, {"measurement": "kon", "setting": "PfLysRS [6]", "result": 911000, "unit": "M/s"}, {"measurement": "Kd", "setting": "PfLysRS [6]; 1 mM L-lysine in running buffer, read-out: dissociation constant (KD)", "result": 0.0124, "unit": "µM"}, {"measurement": "apparent selectivity index for HsLysRS", "setting": "HsLysRS; PfLysRS vs HsLysRS", "result": 200}, {"measurement": "IC50", "setting": "HsLysRS; read-out: IC50 against HsLysRS", "result": 12, "unit": "µM"}]}, {"smiles": "COc1ncccc1Nc1ncnc(Nc2ccccc2S(=O)(=O)C(C)C)n1", "note": "[Compound 38a]", "values": [{"measurement": "Tm of PfLysRS, Average", "setting": "PfLysRS [4]; +Lysine", "result": 48.001, "unit": "°C"}, {"measurement": "Tm of PfLysRS, single repeat", "setting": "PfLysRS [4]; +Lysine", "result": "48.109 °C and 48.140 °C and 47.986 °C and 47.770 °C"}, {"measurement": "ΔTm at 200 µM", "setting": "PfLysRS [4]", "result": 7.9, "unit": "°C"}, {"measurement": "HillSlope (best-fit value)", "setting": "ALK; ALK", "result": 0.6894}, {"measurement": "LogIC50 (best-fit value)", "setting": "ALK; ALK, log of nM", "result": 2.857}, {"measurement": "IC50", "setting": "ALK; ALK, source data, read-out: IC50 (best-fit value)", "result": 0.719, "unit": "µM"}, {"measurement": "IC50", "setting": "ALK; read-out: IC50 against ALK", "result": "0.719 ± 0.182", "unit": "µM"}, {"measurement": "HillSlope (best-fit value)", "setting": "PfLysRS [1]; PfLysRS", "result": 0.6952}, {"measurement": "LogIC50 (best-fit value)", "setting": "PfLysRS [1]; PfLysRS", "result": 2.755}, {"measurement": "IC50", "setting": "PfLysRS [1]; PfLysRS, source data, read-out: IC50 (best-fit value)", "result": 0.568, "unit": "µM"}, {"measurement": "IC50", "setting": "PfLysRS [1]; read-out: IC50 against PfLysRS", "result": 0.568, "unit": "µM"}, {"measurement": "HillSlope (best-fit value)", "setting": "HsLysRS; HsLysRS", "result": 1.205}, {"measurement": "% Inhibition", "setting": "HsLysRS; HsLysRS, Log(Concentration)/nM 2.505, single repeats", "result": "3.343% and 6.292% and 8.061%"}, {"measurement": "% Inhibition", "setting": "HsLysRS; HsLysRS, Log(Concentration)/nM 3.204, single repeats", "result": "-0.8065% and 1.795% and 3.658%"}, {"measurement": "% Inhibition", "setting": "HsLysRS; HsLysRS, Log(Concentration)/nM 3.903, single repeats", "result": "7.774% and 9.643% and 10.78%"}, {"measurement": "% Inhibition", "setting": "HsLysRS; HsLysRS, Log(Concentration)/nM 4.602, single repeats", "result": "27.95% and 31.1% and 35.27%"}, {"measurement": "% Inhibition", "setting": "HsLysRS; HsLysRS, Log(Concentration)/nM 5.301, single repeats", "result": "65.61% and 74.02% and 86.84%"}, {"measurement": "% Inhibition", "setting": "HsLysRS; HsLysRS, Log(Concentration)/nM 6.000, single repeats", "result": "101.8% and 97.59% and 99.58%"}, {"measurement": "LogIC50 (best-fit value)", "setting": "HsLysRS; HsLysRS, log of nM", "result": 4.923}, {"measurement": "IC50", "setting": "HsLysRS; HsLysRS, source data, read-out: IC50 (best-fit value)", "result": 83.7, "unit": "µM"}, {"measurement": "IC50", "setting": "HsLysRS; read-out: IC50 against HsLysRS", "result": 84, "unit": "µM"}]}, {"smiles": "O=C(CC1NCCCC1O)Cn1cnc2cc(Br)c(Cl)cc2c1=O", "note": "(centres unmarked) [Halofuginone]", "values": [{"measurement": "Kd", "setting": "P. falciparum ProRS", "result": 0.019, "unit": "µM"}]}, {"smiles": "C/C(=C\\C(=O)OCCCCCCCCC(=O)O)C[C@@H]1OC[C@H](C[C@@H]2O[C@H]2[C@@H](C)[C@H](C)O)[C@@H](O)[C@H]1O", "note": "[Mupirocin]", "values": [{"measurement": "MIC", "setting": "Staphylococcus aureus", "result": 0.05, "unit": "mg/L"}]}]}
